Laboratory results published in article PMC9147645, “Food-Derived β-Carboline Alkaloids Ameliorate Lipid Droplet Accumulation in Human Hepatocytes” (Pharmaceuticals, 2022).
Where two headings read alike, the source gives them in different places.

What was measured:
[1] = Cytotoxicity / lipocytotoxicity assay (CCK-8); assay type: cell-based; conditions: human; for IC50 at 24 h: HepG2, values given in the text, read-out: IC50 (cytotoxicity, cell viability)
Description: (§1) HepG2 cells were purchased from the American Type Culture Collection (ATCC) (Manassas, VA, USA). High-glucose DMEM containing 10% heat-inactivated FBS and 1% penicillin–streptomycin was maintained under a humidified atmosphere at 37 °C with 5% CO2, as indicated in the Supplementary Materials. HepG2 cells (1.5 × 10^4/well) in DMEM supplemented with 10% FBS were seeded into a 96-well plate. A cytotoxicity assay was performed according to the manufacturer’s protocol using CCK-8 (Dojindo Molecular Technologies), as indicated in the Supplementary Materials (Materials and Methods). […]
(§2) 2 1.2. Cytotoxicity assay […] HepG2 cells (1.5 × 10^4/well) in DMEM supplemented with 10% FBS were under reduced pressure, and H2O (25 ml) was added. Then the solution was seeded into a 96-well plate. The cytotoxicity assay was done using CCK-8 extracted with AcOEt after adjusted to 9–10 with aq. NaOH solution. The organic (Dojindo Molecular Technologies) according to the manufacturer's protocol. […]
(§3) Compounds 1 and 3. To a stirred soln. Compound 10 (218 mg, 1.00 mmol), 5- Technologies, Rockville, USA) according to the manufacturer ’sinstructions. Cell Acetoxymethylfurfural (1, 168 mg, 1.00 mmol) and Nano CuO (7.955 mg, 0.1 suspension (100 μl/well) was inoculated in a 96-well plate (Iwaki, Japan), and mmol) were added 6 ml of DMF. The mixture was stirred at 90℃ for 16 h. The pH once monolayers were observed, treatments were added (n = 3 per each of the aqueous solution was adjusted to 9–10 with aq NaOH solution after adding treatment). Cells were then pre-incubated with the treatments for 24 h before H O. After extracting the solution with AcOEt, the organic layer was washed with assay to determine cell viability.Absorbance was measured at 450 nm using a 2 plate reader (PerkinElmer-ARVO-MX-ID 10533234, Japan). […]
(§4) [5-(hydroxymethyl)-2-furanyl]-1H-pyrido[3,4-b]indole-3-carboxylic acid (2, CAS culture medium was removed from each dish, and cells were washed Registry Number 896466-77-6); flazine methyl ester acetate (3, CAS Registry and rinsed with 1× PBS. Cells were then fixed for 20 min in 10% formalin and Number 104537-95-3); flazin (4, CAS Registry Number 100041-05-2); washed twice using PBS. Then, Oil Red O dye was added to the dishes and incubated for 20 min. Finally, the dye was removed from each dish and cells 5

HepG2 cells [2] = experiment: Lipid droplet accumulation inhibition (LDAI) assay, Oil Red O, oleic acid-loaded cells; assay type: cell-based, human; conditions: for Induction of LDs: HepG2
Description: LDAI assay: LDAI activity was determined using an Oil Red O assay with 24-well plates (n = 4 per treatment). Staining of LDs in cultured hepatocytes was performed according to the manufacturer’s instructions, based on the Oil Red O staining assay. Briefly, HepG2 cells (1.5 × 10^4/well) were supplemented with 10% FBS, cultured, seeded in 35-mm dishes, and treated with the tested samples after 24 h. Oil Red O, a fat-soluble dye, is widely used for staining neutral lipids in LDs, as described in the Supplementary Materials. […]
2 1.2. Cytotoxicity assay dropwise under ice-cooling. […]
Lipid droplet accumulation inhibition assay and Real-Ti me LDAI acid tryptophan (9) and compound 12 were subjected to acid conversion at 90 °C accumulation in acetic acid to obtain compound 2 (1H and 13C, see in Supporting Information). Lipid droplet accumulation inhibition (LDAI) activity was determined using an Synthesis of Compound 4. To a stirred soln . compound 3 in MeOH was added oilred assay in a 24-well plate according to the manufacturer ’sinstructions (n = 4 with NaOH (2 mol/L). Compound 4 was obtained after stirringthe mixture at 65℃ per each treatment). Real-time oleic induced-LD inhibition was performed by for 5 h. (1H and 13C, see Figures S10 and S11). We also prepared similar using a Nikkon microscope. Morphological analysis of HepG2 cells after compounds without any substituent at the C-1 position in the C-ring using a one- treatment with control(-OA) and (+OA) or compound at different concentrations pot Pictet–Spengler reaction (6-8). was determined by staining with AO/EB.
Synthetic b-carboline alkaloids (1-8): 1.4. Oil Red O Staining.
CAS Registry Number of all the series of synthetic b-carboline alkaloids (1-8) HepG2 cells were cultured and treated in 35 mm dishes, as described above. were subjected to biological evaluation: 1H-Pyrido[3,4-b]indole-3-carboxylic acid, Oil Red O dye was used for LD staining. Oil Red O was dissolved in isopropanol 1-[5-[(acetyloxy)methyl]-2-furanyl]-2,3,4,9-tetrahydro-, methyl ester, (1S-trans)- as 3 mg/mL and diluted with water so that isopropanol became 60%. Oil Red O (9CI) (1,CAS Registry Number 11 5 1 0 7-75-0;11 5 1 0 7-76-1);2,3,4,9-Tetrahydro-1-solutionwasfilteredbya0.4 μm pore syringe filter.For cellular staining, the […]

[3] = tested on: nuclear factor erythroid 2-related factor 2 (Nrf2); conditions: hepatocytes; cited from earlier work
human HepG2 = tested on: human HepG2; design: method as in PMID 30103390; conditions: human HepG2, 180 μM; cited from earlier work
HepG2 cells [4] = conditions: 100 μM; cited from earlier work
HepG2 cells [5] = experiment: Cytotoxicity / lipocytotoxicity assay (CCK-8); assay type: cell-based; conditions: 0.25 mM oleic acid, 24 h, HepG2
Description: as §1, §2, §3, §4

[6] = HepG2 cells, HepG2, DMEM loaded with fatty acid (+OA), read-out: Lipocytotoxicity (LC50), concentration at which 50% of cells died
[7] = HepG2 cells, HepG2, DMEM without fatty acid (−OA), read-out: Cytotoxicity (CC50), concentration at which 50% of cells died
[8] = Homo sapiens, HepG2, 24 h, HepG2 + 0.25 mM oleic acid, vs untreated control (+OA)

| SMILES | CC50 at 24 h [1, 6] [µM] | CC50 at 24 h [1, 7] [µM] | inhibition at 400 µM (HepG2 cells [2]; [8]) [%] | further results |
| --- | --- | --- | --- | --- |
| COC(=O)[C@@H]1Cc2c([nH]c3ccccc23)C(c2ccc(COC(C)=O)o2)N1 (stereo partly shown) [Compound 1, Methyl 1,2,3,4-Tetrahydro-1-(5-[(acetyloxy)methyl]-2-furanyl)-9H-pyrido [3,4-b]indole-3-carboxylic acid] | 442 | 488 | 63.2 | IC50 at 24 h ([1]; HepG2 cells): 488 µM |
| COC(=O)c1cc2c([nH]c3ccccc32)c(-c2ccc(COC(C)=O)o2)n1 [Compound 3, flazin methyl ester acetate] | 131 | 66.8 |  | IC50 at 24 h ([1]; HepG2 cells): 66.9 µM; inhibition at 50 µM (HepG2 cells [2]; Homo sapiens, HepG2, 24 h, 50 μM, HepG2 + 0.25 mM oleic acid, vs untreated control (+OA)): 26% |
| COC(=O)C1Cc2c([nH]c3ccccc23)CN1 (stereo not drawn) [Compound 5, methyl 1,2,3,4-tetrahydro-β-carboline-3-carboxylate] | 488 | 397 | 42 |  |
| O=C(O)C1Cc2c([nH]c3ccccc23)CN1 (stereo not drawn) [Compound 6, 1,2,3,4-Tetrahydro-β-carboline-3-carboxylic acid] | 520 | 505 |  |  |
| COC(=O)c1cc2c(cn1)[nH]c1ccccc12 [Compound 7, methyl β-carboline-3-carboxylate] |  |  |  | CC50 at 24 h ([1]; HepG2, DMEM loaded with fatty acid (+OA), read-out: Lipocytotoxicity (LC50), concentration at which 50% of cells died): 498 µM; CC50 at 24 h ([1]; HepG2, DMEM without fatty acid (−OA), read-out: Cytotoxicity (CC50), concentration at which 50% of cells died): 390 µM; inhibition at 400 µM (HepG2 cells [2]; Homo sapiens, 24 h, HepG2 + 0.25 mM oleic acid, vs untreated control (+OA)): 25.4% |
| O=C(O)c1cc2c(cn1)[nH]c1ccccc12 [Compound 8, β-Carboline-3-carboxylic acid] | 530 | 549 | 81.8 |  |
| COc1c(O)cc(CO)cc1O [DHMBA, 3,5-dihydroxy-4-methoxybenzyl alcohol, reference compound] |  |  |  | Nrf2-dependent antioxidant action [3]: Nrf2-dependent antioxidant action |
| Oc1cc(O)c2cc(O)c(-c3cc(O)c(O)c(O)c3)[o+]c2c1 [Delphinidin] |  |  |  | Hepatic triglyceride accumulation (human HepG2): ameliorated hepatic triglyceride accumulation |
| O=c1c(-c2ccc(O)cc2)coc2c([C@@H]3O[C@H](CO)[C@@H](O)[C@H](O)[C@H]3O)c(O)ccc12 [Puerarin] |  |  |  | Hepatic steatosis (HepG2 cells [4]): ameliorates hepatic steatosis |
| CCCCCCCC/C=C\CCCCCCCC(=O)O [oleic acid, reference compound] |  |  |  | Cell viability after oleic acid treatment (in words) (HepG2 cells [5]): no cytotoxicity; Induction of LDs (HepG2 cells [2]; 0.25 mM oleic acid, 24 h): 2.6 fold; Induction of LDs (HepG2 cells [2]; 0.5 mM oleic acid, 24 h): 2.8 fold |
